Data from PubChem BioAssay AID179 (DTP/NCI, 2004).
The source made the active and inactive calls.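 Rule for the calls: active = compounds giving half or more protection of infected cells from virus-caused growth loss, again on retest; inactive = the rest.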

Test system: CEM cells HIV-1 protection, formazan growth assay
Assay: NCI AIDS Antiviral Assay
Settings: for IC50: measured here: growth of uninfected CEM cells
Method in brief: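 Protection of CEM cells against HIV-1 measured as cell growth via soluble formazan read-out, with five concentrations tested on both infected and uninfected cells; failure to protect may reflect toxicity.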

Cc1cn(C2CC(n3ncnn3)C(CO)O2)c(=O)[nH]c1=O (centres undefined)
outcome: inactive

CCCCS(=O)CCC(N)P(=O)(O)O (centres undefined)
EC50: > 200 µM | IC50: > 200 µM

CCCCCCCCCCNC1CC(OC2CC(O)(C(O)CO)Cc3c(O)c4c(c(O)c32)C(=O)c2c(OC)cccc2C4=O)OC(C)C1O (centres undefined)
outcome: inactive

C/C(O)=C(\N=O)C(=O)NCc1ccccc1
EC50: > 1120 µM | IC50: > 1120 µM

Cc1occc1C(=S)Nc1ccc(Cl)c(C(=O)OC(C)C2CC2)c1 (centres undefined)
EC50: 0.0234 µM | IC50: 47.9 µM

CC1CC/C(=C\c2ccc(F)cc2)C2=C1C(c1ccc(F)cc1)NC(=S)N2 (centres undefined)
EC50: > 200 µM | IC50: 16.6 µM

CC(C)(C)C1CCC2(CC1)CCN(N1CCCCCC1)CC2
EC50: > 100 µM | IC50: 91.2 µM

O/N=C1\CN2CCC1CC2
outcome: inactive

O=C(O)c1cc2ccc(Cl)cc2c(O)c1C1=CCCCC1
EC50: > 166 µM | IC50: 33.9 µM

O=C1CC(c2ccco2)C2(C(=O)CCCC2=O)C(c2ccco2)C1 (centres undefined)
EC50: > 100 µM | IC50: > 100 µM

COc1cc(C(=O)n2c3ccc(Br)cc3c3nc4ccccc4nc32)cc(OC)c1OC
EC50: > 50.1 µM | IC50: > 50.1 µM

COC(=O)C1=COC(C)C2CN3CCc4c([nH]c5cc(OC)ccc45)C3CC12 (centres undefined)
EC50: > 46.8 µM | IC50: > 46.8 µM

CC(=O)c1ccc(Cc2ccc(C(C)=O)s2)s1
EC50: > 200 µM | IC50: > 200 µM

CC(=O)N1[C@H](C(=O)O)CS[C@H]1c1ccc(F)cc1
outcome: inactive

Cc1nc2c(O)ccc(O)c2nc1C
EC50: > 200 µM | IC50: 17.8 µM

CN(C)CCCN=c1c2ccccc2n(O)c2ccccc12
EC50: > 200 µM | IC50: 8.13 µM

Cc1ccnc2c1C(=O)C(=O)C=C2N(C)C
outcome: inactive

C/C(CC(=O)Nc1cc(C)ccc1C)=N/N=C(N)N
EC50: > 52.5 µM | IC50: > 52.5 µM

c1ccc(CN2COc3c(ccc4ccccc34)C2)cc1
EC50: > 200 µM | IC50: 55 µM

CC(C)=C=CCN(C)Cc1ccccc1
EC50: > 309 µM | IC50: > 309 µM

CCc1cccc(C)c1NC(=O)C1=C(C)NC(C)=C(C(=O)Nc2c(C)cccc2CC)C1c1ccc([N+](=O)[O-])cc1
EC50: > 12.9 µM | IC50: > 12.9 µM

COc1ccc(-c2sc(/N=C/c3cc(Br)cc(Br)c3O)c(C#N)c2C)cc1OC
outcome: inactive

C1OCN2CSCC12 (centres undefined)
EC50: > 1910 µM | IC50: 110 µM

Cc1nc(N)c(N2CCN(S(=O)(=O)N(Cc3ccccc3)Cc3ccccc3)CC2)c(=O)[nH]1
EC50: > 195 µM | IC50: 120 µM

CCC1(CC)C(=O)N(C(=O)c2ccc(C)cc2)N(C(=O)c2ccc(C)cc2)C1=O
EC50: > 200 µM | IC50: 20.4 µM

OC/C=C/c1ccc(O)c(O)c1
outcome: inactive

C#CC1(O)CCC2C3CCc4cc(Oc5nc(F)nc(-c6c7cc8ccccc8cc7c(SCC)n6CCC)n5)ccc4C3CCC21C (centres undefined)
outcome: inactive

C=C(C)C12CC(C)C34OC(CCCCCCCCCCC)(OC1C3C1OC1(CO)C(O)C1(O)C(=O)C(C)=CC14C)O2 (centres undefined)
outcome: active

Cc1cc(C)c2c(c1)CC2(Cl)Cl
EC50: > 178 µM | IC50: > 178 µM

Cc1cc(C)c2c(c1)CC2N (centres undefined)
EC50: > 1350 µM | IC50: 490 µM

Cc1cn(C2C[C@@H](/[N+]([O-])=C\c3ccccc3)C(CO[Si](C)(C)C(C)(C)C)O2)c(=O)[nH]c1=O (some centres undefined)
EC50: > 200 µM | IC50: 24.5 µM

CCOC(=O)C[C@](C)(O)C1CCCN1 (some centres undefined)
outcome: inactive

NC(CC(C(=O)O)c1ccccc1)C(=O)O (centres undefined)
EC50: > 200 µM | IC50: 112 µM

CCCCCC=C(c1cc(Cl)c(OC)c(C(=O)OC)c1)c1cc(Cl)c(OC)c(C(=O)OC)c1
EC50: 17.8 µM | IC50: 28.8 µM

COc1ccc(C2=NNC(=O)C2(C)Br)cc1 (centres undefined)
EC50: > 200 µM | IC50: 42.7 µM

CCn1c2ccccc2c2ccc3c(c21)C(=O)C=CC3=O
EC50: > 26.3 µM | IC50: > 26.3 µM

COc1ccc(C2ON(c3ccccn3)CC=C2C)cc1 (centres undefined)
EC50: > 91.2 µM | IC50: 83.2 µM

COc1ccc(/C=N/n2cnc3c(c2=O)SC(=C(C#N)C#N)N3c2ccccc2)cc1
EC50: > 6.17 µM | IC50: > 6.17 µM

CCN(CC)CCCC(C)Nc1ccnc2cc(F)ccc12 (centres undefined) (tested in a mixture with another compound)
EC50: > 200 µM | IC50: > 200 µM

O=C1C=CC(=O)C2C1C1CC3C=CC312 (centres undefined)
EC50: > 1350 µM | IC50: > 1350 µM

Cn1cnc([N+](=O)[O-])c1Sc1nccn1-c1cccc2ccccc12
EC50: > 102 µM | IC50: 13.2 µM

CCN(CC)CCNc1ccc(C)c2sc3ccccc3c(=O)c12
EC50: > 200 µM | IC50: 11 µM

CNC(=O)OCC1=CC(=O)C=C(OC)C1=O
EC50: > 550 µM | IC50: 11 µM

Nc1nc(Cl)cc(Oc2ccc(Cl)cc2)n1
EC50: > 200 µM | IC50: > 200 µM

COC1C(O)CC(OC2CC(OC3CC(O[C@@H]4C(=O)c5c(cc6cc(OC7CC(OC8CC(O)C(O)C(C)O8)C(O)C(C)O7)c(C)c(O)c6c5O)C[C@H]4[C@H](OC)C(=O)[C@@H](O)[C@@H](C)O)OC(C)C3O)OC(C)C2O)OC1C (some centres undefined)
EC50: > 0.166 µM | IC50: 0.011 µM

COc1cc(C(=O)/C=C/c2ccc(OCCSCCCCCCCCCCSCCOc3ccc(/C=C/C(=O)c4cc(OC)c(OC)c(OC)c4)cc3)cc2)cc(OC)c1OC
EC50: > 151 µM | IC50: > 151 µM

Cc1ccc2c(c1)S(=O)c1cc(C)ccc1S2
outcome: inactive | IC50: 14.5 µM
